# Measured values taken from patent US20110044938A1 (NYCOMED GMBH, priority 2006, published 2011).
# Columns and labels:
# [1] = system: subclones of RKO colon adenocarcinoma cells (RKOp27 or RKOp21) arrested by Ponasterone A; assay: Alamar Blue cell viability assay, cell cycle specific mode of action: cells arrested by ectopic p27Kip1 induced by Ponasterone A versus proliferating cells; format: cell-based; conditions: Homo sapiens, RKO p27 induced (arrested) cells, 10 μM Ponasterone A, 72 hours, value = class bound given in Table A, read-out: −logIC50 RKO p27 induced (arrested) (converted)
# In short: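 Viability of proliferating versus Ponasterone A (10 μM)-arrested RKOp27/RKOp21 cells after 72 h compound exposure at 37° C, in quadruplicate. Read-out is Alamar Blue fluorescence (544/590 nm) normalised to untreated cells = 100%; values as −log IC50.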
# [2] = system: RKO (RKOp27) human colon adenocarcinoma cells; assay: Alamar Blue cell viability assay, anti-proliferative/cytotoxic activity on proliferating RKO subclones; format: cell-based; conditions: RKOp27, 72 h, RKO p27 uninduced (proliferating) cells, value = class bound given in Table A, read-out: −logIC50 RKO p27 uninduced (proliferating) (converted)
# In short: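 Alamar Blue fluorescence (ex 544, em 590 nm) after 72 h compound exposure at 37 °C, 5% CO2, normalised to untreated controls set at 100%. Cells were seeded at 5000 per well and dosed 24 h later with serial semi-logarithmic dilutions in 10% FCS DMEM, four replicates each. −log IC50 [mol/l] was derived from concentration-effect curves.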
IC50 [1] [nM],SMILES,IC50 [2] [nM]
≥ 100000,"Cc1nc(CNC(=O)OC2CCc3c(sc(NC(=O)CC(C)c4ccccc4)c3C#N)C2)cs1 (stereo not drawn) [Example 351, (2-Methyl-thiazol-4-ylmethyl)-carbamic acid 3-cyano-2-(3-phenyl-butanoylamino)-4,5,6,7-tetrahydro-benzo[b] thiophen-6-yl ester]",≤ 501
≥ 100000,"Cc1nocc1CNC(=O)OCC1CCc2c(sc(NC(=O)CC(C)c3ccccc3)c2C#N)C1 (stereo not drawn) [Example 352, (3-Methyl-isoxazol-4-ylmethyl)-carbamic acid 3-cyano-2-(3-phenyl-butanoylamino)-4,5,6,7-tetrahydro-benzo[b]thiophen-6-ylmethyl ester]",≤ 501
≥ 100000,"CC(CC(=O)Nc1sc2c(c1C#N)CCC(COC(=O)NCc1ccno1)C2)c1ccccc1 (stereo not drawn) [Example 353, Isoxazol-5-ylmethyl-carbamic acid 3-cyano-2-(3-phenyl-butanoylamino)-4,5,6,7-tetrahydro-benzo[b] thiophen-6-ylmethyl ester]",≤ 501
≥ 100000,"Cc1oncc1CNC(=O)OC1CCc2c(sc(NC(=O)CC(C)c3cccnc3)c2C#N)C1 (stereo not drawn) [Example 354, (5-Methyl-isoxazol-4-ylmethyl)-carbamic acid 3-cyano-2-(3-pyridin-3-yl-butanoylamino)-4,5,6,7-tetrahydro-benzo[b] thiophen-6-yl ester]",501 to 2000
≥ 100000,"Cc1nocc1CNC(=O)OC1CCc2c(sc(NC(=O)CC(C)c3cccnc3)c2C#N)C1 (stereo not drawn) [Example 355, (3-Methyl-isoxazol-4-ylmethyl)-carbamic acid 3-cyano-2-(3-pyridin-3-yl-butanoylamino)-4,5,6,7-tetrahydro-benzo[b] thiophen-6-yl ester]",501 to 2000
≥ 100000,"CC(CC(=O)Nc1sc2c(c1C#N)CCC(OC(=O)OCc1cncs1)C2)c1cccnc1 (stereo not drawn) [Example 356, Carbonic acid 3-cyano-2-(3-pyridin-3-yl-butanoylamino)-4,5,6,7-tetrahydro-benzo[b] thiophen-6-yl ester thiazol-5-ylmethyl ester]",501 to 2000
≥ 100000,"CC(CC(=O)Nc1sc2c(c1C#N)CCC(COC(=O)N1CCCC1)C2)c1cccnc1 (stereo not drawn) [Example 357, Pyrrolidine-1-carboxylic acid 3-cyano-2-(3-pyridin-3-yl-butanoylamino)-4,5,6,7-tetrahydro-benzo[b]thiophen-6-ylmethyl ester]",≤ 501
≥ 100000,"Cc1oncc1CNC(=O)OC1CCc2c(sc(NC(=O)CC(C)c3ccccc3)c2C#N)C1 (stereo not drawn) [Example 358, (5-Methyl-isoxazol-4-ylmethyl)-carbamic acid 3-cyano-2-(3-phenyl-butanoylamino)-4,5,6,7-tetrahydro-benzo[b]thiophen-6-yl ester]",≤ 501
≥ 100000,"Cc1nocc1CNC(=O)OC1CCc2c(sc(NC(=O)CC(C)c3ccccc3)c2C#N)C1 (stereo not drawn) [Example 359, (3-Methyl-isoxazol-4-ylmethyl)-carbamic acid 3-cyano-2-(3-phenyl-butanoylamino)-4,5,6,7-tetrahydro-benzo[b] thiophen-6-yl ester]",≤ 501
≥ 100000,"CC(CC(=O)Nc1sc2c(c1C#N)CCC(OC(=O)N1CCCC1)C2)c1ccccc1 (stereo not drawn) [Example 360, Pyrrolidine-1-carboxylic acid 3-cyano-2-(3-phenyl-butanoylamino)-4,5,6,7-tetrahydro-benzo[b] thiophen-6-yl ester]",≤ 501
≥ 100000,"COc1cccc(C(C)CC(=O)Nc2sc3c(c2C#N)CCC(OC(=O)NCc2conc2C)C3)c1 (stereo not drawn) [Example 361, (3-Methyl-isoxazol-4-ylmethyl)-carbamic acid 3-cyano-2-[3-(3-methoxy-phenyl)-butanoyl-amino]-4,5,6,7-tetrahydro-benzo[b] thiophen-6-yl ester]",≤ 501
≥ 100000,"COc1cccc(C(C)CC(=O)Nc2sc3c(c2C#N)CCC(OC(=O)NCc2cc(C)no2)C3)c1 (stereo not drawn) [Example 362, (3-Methyl-isoxazol-5-ylmethyl)-carbamic acid 3-cyano-2-[3-(3-methoxy-phenyl)-butanoyl-amino]-4,5,6,7-tetrahydro-benzo[b]thiophen-6-yl ester]",501 to 2000
≥ 100000,"COc1cccc(C(C)CC(=O)Nc2sc3c(c2C#N)CCC(COC(=O)NCc2csc(C)n2)C3)c1 (stereo not drawn) [Example 363, (2-Methyl-thiazol-4-ylmethyl)-carbamic acid 3-cyano-2-[3-(3-methoxy-phenyl)-butanoyl-amino]-4,5,6,7-tetrahydro-benzo[b]thiophen-6-ylmethyl ester]",501 to 2000
≥ 100000,"COc1cccc(C(C)CC(=O)Nc2sc3c(c2C#N)CCC(COC(=O)NCc2cc(C)no2)C3)c1 (stereo not drawn) [Example 364, (3-Methyl-isoxazol-5-ylmethyl)-carbamic acid 3-cyano-2-[3-(3-methoxy-phenyl)-butanoyl-amino]-4,5,6,7-tetrahydro-benzo[b]thiophen-6-ylmethyl ester]",≤ 501
≥ 100000,COc1cccc(C(C)CC(=O)Nc2sc3c(c2C#N)CCC(COC(=O)NCc2conc2C)C3)c1 (stereo not drawn) [Example 365],501 to 2000
≥ 50100,"CC(CC(=O)Nc1sc2c(c1C#N)CCC(OC(=O)N1CCOCC1)C2)c1ccccc1 (stereo not drawn) [Example 366, Morpholine-4-carboxylic acid 3-cyano-2-(3-phenyl-butanoyl-amino)-4,5,6,7-tetrahydro-benzo[b] thiophen-6-yl ester]",≤ 501
≥ 50100,"CC(CC(=O)Nc1sc2c(c1C#N)CCC(COC(=O)N1CCOCC1)C2)c1cccnc1 (stereo not drawn) [Example 367, Morpholine-4-carboxylic acid 3-cyano-2-(3-pyridin-3-yl-butanoylamino)-4,5,6,7-tetrahydro-benzo[b]thiophen-6-ylmethyl ester]",501 to 2000
≥ 50100,"CC(CC(=O)Nc1sc2c(c1C#N)CCC(OC(=O)OCc1nccs1)C2)c1ccccc1 (stereo not drawn) [Example 368, Carbonic acid 3-cyano-2-(3-phenyl-butanoylamino)-4,5,6,7-tetrahydro-benzo[b]thiophen-6-yl ester thiazol-2-ylmethyl ester]",501 to 2000
≥ 50100,"CC(CC(=O)Nc1sc2c(c1C#N)CCC(OC(=O)N1CCCC1)C2)c1cccnc1 (stereo not drawn) [Example 369, Pyrrolidine-1-carboxylic acid 3-cyano-2-(3-pyridin-3-yl-butanoylamino)-4,5,6,7-tetrahydro-benzo[b]thiophen-6-yl ester]",501 to 2000
≥ 50100,"Cc1cc(CNC(=O)OCC2CCc3c(sc(NC(=O)CC(C)c4cccnc4)c3C#N)C2)on1 (stereo not drawn) [Example 370, (3-Methyl-isoxazol-5-ylmethyl)-carbamic acid 3-cyano-2-(3-pyridin-3-yl-butanoylamino)-4,5,6,7-tetrahydro-benzo[b] thiophen-6-ylmethyl ester]",501 to 2000
≥ 50100,"CC(CC(=O)Nc1sc2c(c1C#N)CCC(COC(=O)N1CCCC1)C2)c1ccccn1 (stereo not drawn) [Example 371, Pyrrolidine-1-carboxylic acid 3-cyano-2-(3-pyridin-2-yl-butanoylamino)-4,5,6,7-tetrahydro-benzo[b]thiophen-6-ylmethyl ester]",501 to 2000
≥ 50100,"CC(CC(=O)Nc1sc2c(c1C#N)CCC(OC(=O)NCc1ccno1)C2)c1ccccc1 (stereo not drawn) [Example 372, (Isoxazol-5-ylmethyl)-carbamic acid 3-cyano-2-(3-phenyl-butanoylamino)-4,5,6,7-tetrahydro-benzo[b]thiophen-6-yl ester]",≤ 501
≥ 50100,"Cc1cc(CNC(=O)OC2CCc3c(sc(NC(=O)CC(C)c4ccccc4)c3C#N)C2)on1 (stereo not drawn) [Example 373, (3-Methyl-isoxazol-5-ylmethyl)-carbamic acid 3-cyano-2-(3-phenyl-butanoylamino)-4,5,6,7-tetrahydro-benzo[b]thiophen-6-yl ester]",≤ 501
≥ 50100,"COc1cccc(C(C)CC(=O)Nc2sc3c(c2C#N)CCC(OC(=O)N2CCOCC2)C3)c1 (stereo not drawn) [Example 374, Morpholine-4-carboxylic acid 3-cyano-2-(3-(3-methoxy-phenyl)-butanoylamino)-4,5,6,7-tetrahydro-benzo[b] thiophen-6-yl ester]",≤ 501
≥ 10000,"CC(CC(=O)Nc1sc2c(c1C#N)CCC(OC(=O)OCc1cncs1)C2)c1ccccc1 (stereo not drawn) [Example 375, Carbonic acid 3-cyano-2-(3-phenyl-butanoyl-amino)-4,5,6,7-tetrahydro-benzo[b] thiophen-6-yl ester thiazol-5-ylmethyl ester]",≤ 501
≥ 10000,"COc1cccc(C(C)CC(=O)Nc2sc3c(c2C#N)CCC(OC(=O)N2CCCC2)C3)c1 (stereo not drawn) [Example 376, Pyrrolidine-1-carboxylic acid 3-cyano-2-(3-(3-methoxy-phenyl)-butanoylamino)-4,5,6,7-tetrahydro-benzo[b] thiophen-6-yl ester]",≤ 501
≥ 10000,"Cc1nc(CNC(=O)OCC2CCc3c(sc(NC(=O)CC(C)c4cccnc4)c3C#N)C2)cs1 (stereo not drawn) [Example 377, (2-Methyl-thiazol-4-ylmethyl)-carbamic acid 3-cyano-2-(3-pyridin-3-yl-butanoylamino)-4,5,6,7-tetrahydro-benzo[b]thiophen-6-ylmethyl ester]",501 to 2000
